One test relates to MDM4 and SmD1-me2S. Description: Mouse A375 Tumor Xenograft MDM4 and SmD1-me2S Western Blot Assay. The test is classed as in vivo. The following applies: A-375, PO given QD or BID, tumors 4 hr after last dose, 4 days of dosing, read-out: dose achieving 50% effect (ED50). The protocol:
Grow A375 cells in medium (DMEM high glucose/10% Hi FBS) at 37° C. in an incubator (5% CO2) for 18-24 hr. Mix the cells with MATRIGEL® (1:1) and implant the cells (5×10^6/animal) subcutaneously into the rear flank of the mice (female nude mice, Harlan). The implanted tumor cells grow as solid tumors. Measure the tumor volume and body weight twice a week with a caliper. After tumor volume reaches approximately 200-250 mm^3 (about 20 days after implant), randomize the animals, and group them into compound treatment groups. Administer the test compounds (formulated in SWFI with 1% HEC/0.25% TWEEN® 80/0.05% Antifoam) by oral gavage. Test compound doses are in the range of 3 to 100 mg/kg. Sacrifice mice 4 hr after the last dose (4 days of dosing).
Mouse A375 Tumor Xenograft MDM4 and SmD1-me2S Western Blot Assay
For western blotting, homogenize the tumor tissues as performed above in 500 μL of kit XY lysis buffer including protease inhibitor cocktail complete Mini (Roche, cat. #: 11 836 170 001) [this cocktail contains […] Trypsin-Chymotrypsin Inhibitor (Sigma cat. # T9777); 10 μg/mL TPCK (Sigma cat. # T4376); 10 μg/mL Aprotinin (Sigma cat. # A1153); 60 mM Beta-Glycerophosphate disodium salt hydrate (Sigma cat. # G9891); 1% TRITON™ X-100 (Sigma cat. # T9284); 25 mM Tris pH ˜7.5 (INVITROGEN™ cat. #15567-027); 2.5 mM sodium pyrophosphate dibasic (Fluka cat. #71501); 300 mM […] (Mallinckrodt cat. #7581); 2 mM TAME (Sigma cat. # T4626); 15 mM pNPP (pNPP disodium salt hexahydrate, Sigma cat. #P4744); 5 mM benzamidine hydrochloride hydrate (Sigma cat. #B6506); 10 mM sodium fluoride (Sigma cat. #S-7920); 1 mM sodium metavanadate anhydrous (Sigma cat. #59088); […]. 1 mM DTT (Sigma cat. # D9779); 15 mM EDTA pH ˜8.0 (INVITROGEN™ cat. #15575020); 5 mM EGTA pH ˜8.0 (Sigma cat. #E3889); […] (Fisher/Axxora cat. # A350012m001); 0.25 mM Pefa Bloc (Sigma cat. #76307). Spin the protein lysates down at 8,000 rpm for 10 min and transfer supernatants to 1.5 mL tubes for sonication (amplitude 25% yield) for 15 seconds. […]
A general note: Immunoblotting shows a protein as a band on a membrane.

The subject of the next test is A375 cells. As to the kind of experiment: Protocol Proliferation 7-day (CELL TITER-GLO). The test is classed as cell-based. Particulars: Homo sapiens, A-375, 168 h, 7 days, Mean ± SEM. The method, then:
The purpose of this assay is to measure the ability of test compounds to inhibit proliferation of cancer cells.
On day 1, plate A375 cells (ATCC, DMEM high glucose/10% Hi FBS) at 250 cells/well (100 μL/well) in a 96-well assay plate (BD Falcon 35-3219). Incubate the plates in a 37° C. incubator (5% CO2) for 18-24 hr. On day 2, prepare and serially dilute test compounds in medium (1:2 10-point serial dilution) from compound stock solutions (10 mM in 100% DMSO). Add 10 μL of serial diluted test compounds to cell plates (0.2% DMSO final concentration). Add 10 μL of reference compound (Example 1) to column 1 of cell plates (20 μM final, 0.2% DMSO). Incubate cell plates at 37° C./5% CO2 for 7 days. On day nine, thaw the CELL TITER-GLO® (Promega #G7571) buffer and equilibrate to room temperature prior to use. Also, equilibrate the lyophilized CELL TITER-GLO® substrate to room temperature prior to use. Transfer CELL TITER-GLO® buffer to an amber substrate bottle to reconstitute the lyophilized enzyme/substrate mixture to form the CELL TITER-GLO® reagent. Equilibrate the cell plate(s) to room temperature for […] Gently remove media in cell plates by flicking and blotting on a stack of paper towels. Add CELL TITER-GLO® reagent (25 μL) to each well. Incubate plates for […] at room temperature before reading. Measure luminescence using PERKIN-ELMER® ENVISION® Multi-label Plate Reader. Analyze this luminescence data by a 4-parameter curve fit using Activity Base, to yield cell proliferation IC50 values.
For orientation: ATP-based viability assays read luminescence as a measure of living cells.

The values that follow come from patent publication US9840532B2, “5′-substituted nucleoside compounds” (Eli Lilly and Company, priority 2015, dated 2017).

The structures appear in SMILES notation.

On to `Nc1ncnc2c1ccn2[C@@H]1O[C@H]([C@H](O)c2ccccc2)[C@@H](O)[C@H]1O` [Example 2, (2R,3R,4S,5R)-2-(4-Aminopyrrolo[2,3-d]pyrimidin-7-yl)-5[(R)-hydroxy(phenyl)methyl]tetrahydrofuran-3,4-diol], for which the ED50 in the test with MDM4 and SmD1-me2S is at most 30 mg/kg. The IC50 in the test on A375 cells came to 31.5 nM.

On to `C[C@@](O)(c1ccc(Cl)cc1)[C@H]1O[C@@H](n2ccc3c(N)ncnc32)[C@H](O)[C@@H]1O` [Example 3, (2R,3R,4S,5S)-2-(4-Aminopyrrolo[2,3-d]pyrimidin-7-yl)-5-[(1R)-1-(4-chlorophenyl)-1-hydroxy-ethyl]tetrahydrofuran-3,4-diol], for which the ED50 in the test with MDM4 and SmD1-me2S was at most 30 mg/kg. Also, in the test with A375 cells, the IC50 came to 44 nM.

As to `Nc1ncnc2c1ccn2[C@@H]1O[C@H]([C@H](O)c2ccc(Cl)cc2)[C@@H](O)[C@H]1O` [Example 1, (2R,3R,4S,5R)-2-(4-Aminopyrrolo[2,3-d]pyrimidin-7-yl)-5-[(R)-(4-chlorophenyl)-hydroxy-methyl]tetrahydrofuran-3,4-diol], the ED50 with MDM4 and SmD1-me2S is at most 30 mg/kg. Further, the 50% inhibitory concentration (IC50) with A375 cells stood at 10.8 nM.

Broadly, the ED50 is the midpoint of the dose-response relation. In general, IC50 refers to the concentration at which inhibition is half-maximal. Read a low IC50 as higher potency.
